The text below walks through data of patent publication US9108944B2, “Androgen receptor modulators and uses thereof” (ARAGON PHARMACEUTICALS, INC., priority 2010, dated 2015).

By IC50 is commonly meant the concentration needed to halve the response being measured. Higher therefore signals weaker potency.

Assay [1] has as its target T1, AR-VP16 (Homo sapiens, UniProt P10275).
T1 sequence (P10275 560-920 limits assumed): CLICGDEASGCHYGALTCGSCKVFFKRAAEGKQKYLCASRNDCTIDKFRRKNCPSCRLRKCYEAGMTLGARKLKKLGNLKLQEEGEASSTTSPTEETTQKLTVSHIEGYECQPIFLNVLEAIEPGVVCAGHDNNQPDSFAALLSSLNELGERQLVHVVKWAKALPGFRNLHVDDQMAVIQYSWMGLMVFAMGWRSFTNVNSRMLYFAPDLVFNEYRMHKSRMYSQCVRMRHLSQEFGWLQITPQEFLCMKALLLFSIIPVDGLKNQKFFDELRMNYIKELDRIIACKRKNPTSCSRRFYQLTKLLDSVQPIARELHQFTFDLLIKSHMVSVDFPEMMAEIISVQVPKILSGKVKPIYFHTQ
Nature of the assay: AR-VP16 DNA Binding Assay, agonist mode (HepG2 cells). It counts as cell-based. Conditions: Emax >20x DMSO control = agonist.

For assay [2], the target named is T1, AR-VP16. As to the kind of experiment: AR-VP16 DNA Binding Assay, antagonist mode (HepG2 cells, 0.1 nM R1881). It counts as cell-based. The method, boiled down: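 Transfected HepG2 cells expressing AR-VP16 received serially diluted compound in charcoal-stripped-serum RPMI the day after transfection, with 0.1 nM R1881 (final) added only for antagonist testing. After 48 h, cells were lysed for measurement.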

As for `N#Cc1ncc(N2C(=O)C3(CCC3)N(c3ccc(OCCN4CCOCC4)c(F)c3)C2=S)cc1C(F)(F)F` [Compound 143, 5-(5-(3-Fluoro-4-(2-morpholinoethoxy)phenyl)-8-oxo-6-thioxo-5,7-diazaspiro[3.4]octan-7-yl)-3-(trifluoromethyl)picolinonitrile], the “ARVP16 DNA Binding Assay (Agonist mode): Agonist?” value (“ARVP16 DNA Binding Assay” for short) on AR-VP16 [1] is “Yes (Agonist defined as a compound whose Emax in the ARVP16 DNA Binding Assay (Agonist mode) is >20x DMSO control)”. In addition, on AR-VP16 [2], the IC50 is below 1000 nM.

`N#Cc1ncc(N2C(=O)C3(CCC3)N(c3ccc(OCCc4cccnc4)c(F)c3)C2=S)cc1C(F)(F)F` [Compound 144, 5-(5-(3-Fluoro-4-(2-(pyridin-3-yl)ethoxy)phenyl)-8-oxo-6-thioxo-5,7-diazaspiro[3.4]octan-7-yl)-3-(trifluoromethyl)picolinonitrile]: on AR-VP16 [1], the “ARVP16 DNA Binding Assay” value is listed as “Yes (Agonist defined as a compound whose Emax in the ARVP16 DNA Binding Assay (Agonist mode) is >20x DMSO control)”. On AR-VP16 [2], this compound had an IC50 below 1000 nM.

Take `N#Cc1ncc(N2C(=O)C3(CCC3)N(c3ccc(OCCn4cccc4)c(F)c3)C2=S)cc1C(F)(F)F` [Compound 146, 5-(5-(4-(2-(1H-Pyrrol-1-yl)ethoxy)-3-fluorophenyl)-8-oxo-6-thioxo-5,7-diazaspiro[3.4]octan-7-yl)-3-(trifluoromethyl)picolinonitrile]: the “ARVP16 DNA Binding Assay” value on AR-VP16 [1] is recorded as “No (Agonist defined as a compound whose Emax in the ARVP16 DNA Binding Assay (Agonist mode) is >20x DMSO control)”. Also, on AR-VP16 [2], the IC50 is below 1000 nM.

As for `CN1CCN(CCOc2ccc(N3C(=S)N(c4cnc(C#N)c(C(F)(F)F)c4)C(=O)C34CCC4)cc2F)CC1` [Compound 149, 5-(5-(3-Fluoro-4-(2-(4-methylpiperazin-1-yl)ethoxy)phenyl)-8-oxo-6-thioxo-5,7-diazaspiro[3.4]octan-7-yl)-3-(trifluoromethyl)picolinonitrile], the “ARVP16 DNA Binding Assay” value at AR-VP16 [1] was “No (Agonist defined as a compound whose Emax in the ARVP16 DNA Binding Assay (Agonist mode) is >20x DMSO control)”. Besides, at AR-VP16 [2], the IC50 is below 1000 nM.

With `N#Cc1ncc(N2C(=O)C3(CCC3)N(c3ccc(OCCCN4CCOCC4)c(F)c3)C2=S)cc1C(F)(F)F` [Compound 150, 5-(5-(3-Fluoro-4-(3-morpholinopropoxy)phenyl)-8-oxo-6-thioxo-5,7-diazaspiro[3.4]octan-7-yl)-3-(trifluoromethyl)picolinonitrile], at AR-VP16 [1], the “ARVP16 DNA Binding Assay” value is “Yes (Agonist defined as a compound whose Emax in the ARVP16 DNA Binding Assay (Agonist mode) is >20x DMSO control)”. In addition, the IC50 at AR-VP16 [2] is below 1000 nM.

With `N#Cc1ncc(N2C(=O)C3(CCC3)N(c3ccc(OCCCCSCCCC(F)(F)C(F)(F)F)c(F)c3)C2=S)cc1C(F)(F)F` [Compound 151, 5-(5-(3-Fluoro-4-(4-((4,4,5,5,5-pentafluoropentyl)thio)butoxy)phenyl)-8-oxo-6-thioxo-5,7-diazaspiro[3.4]octan-7-yl)-3-(trifluoromethyl)picolinonitrile], the “ARVP16 DNA Binding Assay” value at AR-VP16 [1] was “No (Agonist defined as a compound whose Emax in the ARVP16 DNA Binding Assay (Agonist mode) is >20x DMSO control)”. The same compound displayed a concentration for half-maximal inhibition (IC50) on AR-VP16 [2] above 1000 nM.

Regarding `N#Cc1ncc(N2C(=O)C3(CCC3)N(c3ccc(OCCCC[S+]([O-])CCCC(F)(F)C(F)(F)F)c(F)c3)C2=S)cc1C(F)(F)F` (stereo not shown) [Compound 152, 5-(5-(3-Fluoro-4-(4-((4,4,5,5,5-pentafluoropentyl)sulfinyl)butoxy)phenyl)-8-oxo-6-thioxo-5,7-diazaspiro[3.4]octan-7-yl)-3-(trifluoromethyl)picolinonitrile], at AR-VP16 [1], the “ARVP16 DNA Binding Assay” value is listed as “No (Agonist defined as a compound whose Emax in the ARVP16 DNA Binding Assay (Agonist mode) is >20x DMSO control)”. Besides, the IC50 at AR-VP16 [2] was below 1000 nM.

Take `N#Cc1ncc(N2C(=O)C3(CCC3)N(c3ccc(OCCCSCCCC(F)(F)C(F)(F)F)c(F)c3)C2=S)cc1C(F)(F)F` [Compound 153, 5-(5-(3-Fluoro-4-(3-((4,4,5,5,5-pentafluoropentyl)thio)propoxy)phenyl)-8-oxo-6-thioxo-5,7-diazaspiro[3.4]octan-7-yl)-3-(trifluoromethyl)picolinonitrile]: the “ARVP16 DNA Binding Assay” value at AR-VP16 [1] was “No (Agonist defined as a compound whose Emax in the ARVP16 DNA Binding Assay (Agonist mode) is >20x DMSO control)”. For the same compound, the 50% inhibitory concentration (IC50) on AR-VP16 [2] is below 1000 nM.

Turning to `N#Cc1ncc(N2C(=O)C3(CCC3)N(c3ccc(OCCC[S+]([O-])CCCC(F)(F)C(F)(F)F)c(F)c3)C2=S)cc1C(F)(F)F` (stereo not shown) [Compound 154, 5-(5-(3-Fluoro-4-(3-((4,4,5,5,5-pentafluoropentyl)sulfinyl)propoxy)phenyl)-8-oxo-6-thioxo-5,7-diazaspiro[3.4]octan-7-yl)-3-(trifluoromethyl)picolinonitrile], the “ARVP16 DNA Binding Assay” value on AR-VP16 [1] is reported as “No (Agonist defined as a compound whose Emax in the ARVP16 DNA Binding Assay (Agonist mode) is >20x DMSO control)”. This compound also came in with an IC50 on AR-VP16 [2] below 1000 nM.

Regarding `O=C1N(c2ccc3nnc(C(F)(F)F)n3n2)C(=S)N(c2ccc(OCCc3ccccn3)cc2)C12CCC2` [Compound 155, 5-(4-(2-(Pyridin-2-yl)ethoxy)phenyl)-6-thioxo-7-(3-(trifluoromethyl)-[1,2,4]triazolo[4,3-b]pyridazin-6-yl)-5,7-diazaspiro[3.4]octan-8-one], the “ARVP16 DNA Binding Assay” value at AR-VP16 [1] is “No (Agonist defined as a compound whose Emax in the ARVP16 DNA Binding Assay (Agonist mode) is >20x DMSO control)”. The same compound registered an IC50 at AR-VP16 [2] above 1000 nM.

In the case of `N#Cc1ncc(N2C(=O)C3(CCC3)N(c3ccc(F)c(OCCc4ccccn4)c3)C2=S)cc1C(F)(F)F` [Compound 158, 5-(5-(4-Fluoro-3-(2-(pyridin-2-yl)ethoxy)phenyl)-8-oxo-6-thioxo-5,7-diazaspiro[3.4]octan-7-yl)-3-(trifluoromethyl)picolinonitrile], the “ARVP16 DNA Binding Assay” value at AR-VP16 [1] is “No (Agonist defined as a compound whose Emax in the ARVP16 DNA Binding Assay (Agonist mode) is >20x DMSO control)”. In addition, the half-maximal inhibitory concentration (IC50) on AR-VP16 [2] was above 1000 nM.

Consider `N#Cc1ncc(N2C(=O)C3(CCC3)N(c3ccc(F)c(OCCc4cccnc4)c3)C2=S)cc1C(F)(F)F` [Compound 159, 5-(5-(4-Fluoro-3-(2-(pyridin-3-yl)ethoxy)phenyl)-8-oxo-6-thioxo-5,7-diazaspiro[3.4]octan-7-yl)-3-(trifluoromethyl)picolinonitrile], for which, at AR-VP16 [1], the “ARVP16 DNA Binding Assay” value is recorded as “No (Agonist defined as a compound whose Emax in the ARVP16 DNA Binding Assay (Agonist mode) is >20x DMSO control)”. At AR-VP16 [2], this compound showed an IC50 above 1000 nM.

With `N#Cc1ncc(N2C(=O)C3(CCC3)N(c3ccc(F)c(OCCc4ccncc4)c3)C2=S)cc1C(F)(F)F` [Compound 160, 5-(5-(4-Fluoro-3-(2-(pyridin-4-yl)ethoxy)phenyl)-8-oxo-6-thioxo-5,7-diazaspiro[3.4]octan-7-yl)-3-(trifluoromethyl)picolinonitrile], the “ARVP16 DNA Binding Assay” value on AR-VP16 [1] is given as “No (Agonist defined as a compound whose Emax in the ARVP16 DNA Binding Assay (Agonist mode) is >20x DMSO control)”. Also, on AR-VP16 [2], the half-maximal inhibitory concentration (IC50) is above 1000 nM.

Turning to `N#Cc1ncc(N2C(=O)C3(CCC3)N(c3ccc(F)c(OCc4ccccc4)c3)C2=S)cc1C(F)(F)F` [Compound 161, 5-(5-(3-(Benzyloxy)-4-fluorophenyl)-8-oxo-6-thioxo-5,7-diazaspiro[3.4]octan-7-yl)-3-(trifluoromethyl)picolinonitrile], the “ARVP16 DNA Binding Assay” value at AR-VP16 [1] is “No (Agonist defined as a compound whose Emax in the ARVP16 DNA Binding Assay (Agonist mode) is >20x DMSO control)”. In addition, the IC50 on AR-VP16 [2] was above 1000 nM.
